Laboratory results as given in patent publication EP4682145A1, “BENZOHETEROCYCLIC COMPOUND, AND PREPARATION METHOD THEREFOR AND USE THEREOF” (Cascade Pharmaceuticals, Inc., priority 2023, dated 2024).
pEC50: −log10 of the molar value.

These molecules were tested against T1, human FFAR1 (GPR40) (Homo sapiens, UniProt O14842) (assay: NFAT-RE-based reporter gene activity assay (Dual-Glo luciferase) for GPR40 agonistic activity in co-transfected HEK293T cells). Conditions: 4-hour treatment.
T1 construct: Flag; expressed in transfected cells; host or cells: HEK293T
T1 sequence (O14842 whole entry): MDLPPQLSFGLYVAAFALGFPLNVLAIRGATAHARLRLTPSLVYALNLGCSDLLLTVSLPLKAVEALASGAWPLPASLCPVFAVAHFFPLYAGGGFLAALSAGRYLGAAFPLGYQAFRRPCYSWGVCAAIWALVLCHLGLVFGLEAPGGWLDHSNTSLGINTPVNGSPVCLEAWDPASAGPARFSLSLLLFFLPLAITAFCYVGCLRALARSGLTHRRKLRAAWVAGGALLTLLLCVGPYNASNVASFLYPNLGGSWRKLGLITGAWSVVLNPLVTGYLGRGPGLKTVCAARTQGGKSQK
Format: cell-based
Outline: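 HEK293T cells co-transfected with human FFAR1, NFAT-RE firefly luciferase and TK-Renilla plasmids; 24 h later treated 4 h with 10 half-log compound dilutions from 1 µM. Firefly/Renilla ratio normalised to DMSO; EC50 from four-parameter fit.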
With `COc1ccc(F)c(N2CCC(c3oc4cc([C@H](C5CC5)C(C)C(=O)O)ccc4c3-c3cccc(C(C)(C)C)c3)CC2)c1` (stereo partly drawn) [Compound 217] the pEC50 was 7.00 to 8.00.
In the case of `COc1ccc(F)c(N2CCC(c3oc4cc([C@H](C5CC5)C(C)C(=O)O)ccc4c3-c3ccc(C(C)(C)C)cc3)CC2)c1` (stereo partly drawn) [Compound 218], the pEC50 was 6.30 to 7.00.
`COc1ccc(F)c(N2CCC(c3oc4cc([C@H](C5CC5)C(F)C(=O)O)ccc4c3-c3cccc(C(C)(C)C)c3)CC2)c1` (stereo partly drawn) [Compound 219] was tested, and the pEC50 was 7.00 to 8.00.
With `COc1ccc(F)c(N2CCC(c3oc4cc([C@H](C5CC5)C(F)C(=O)O)ccc4c3-c3ccc(C(C)(C)C)cc3)CC2)c1` (stereo partly drawn) [Compound 220] the pEC50 was 6.30 to 7.00.
`COc1ccc(F)c(N2CCC(c3oc4cc(C(C5CC5)C(C)(C)C(=O)O)ccc4c3-c3ccc(C(C)(C)C)cc3)CC2)c1` (stereo not drawn) [Compound 222] gave a pEC50 of 6.30 to 7.00.
In the case of `COc1ccc(F)c(N2CCC(c3oc4cc(C(CC(=O)O)C5CC5)c(F)cc4c3-c3ccc(C(C)(C)C)cc3)CC2)c1` (stereo not drawn) [Compound 223], the pEC50 was 6.30 to 7.00.
`COc1ccc(F)c(N2CCC(c3oc4cc(CCC(=O)O)ccc4c3-c3cccc(C(C)(C)C)c3)CC2)c1` [Compound 231] showed a pEC50 of 6.30 to 7.00.
`COc1ccc(F)c(N2CCC(c3oc4cc(C(C)CC(=O)O)ccc4c3-c3cccc(C(C)(C)C)c3)CC2)c1` (stereo not drawn) [Compound 232] was tested, and the pEC50 was 6.30 to 7.00.
`CCC(CC(=O)O)c1ccc2c(-c3cccc(C(C)(C)C)c3)c(C3CCN(c4cc(OC)ccc4F)CC3)oc2c1` (stereo not drawn) [Compound 233] gave a pEC50 of 6.30 to 7.00.
With `COc1cccc(N2CCC(c3oc4cc([C@@H](CC(=O)O)C5CC5)ccc4c3C(=O)Nc3ccccc3F)CC2)c1` [Compound 234] the pEC50 was ≥ 8.00.
`COc1cccc(N2CCC(c3oc4cc(C(CC(=O)O)C5CC5)ccc4c3C(=O)Nc3ccccc3C#N)CC2)c1` (stereo not drawn) [Compound 236] showed a pEC50 of 7.00 to 8.00.
For `COc1cccc(N2CCC(c3oc4cc(C(CC(=O)O)C5CC5)ccc4c3C(=O)Nc3ccccc3C(F)(F)F)CC2)c1` (stereo not drawn) [Compound 237], the pEC50 was 7.00 to 8.00.
`COc1cccc(N2CCC(c3oc4cc([C@@H](CC(=O)O)C5CC5)ccc4c3C(=O)Nc3ccccc3C(F)(F)F)CC2)c1` [Compound 238] was tested, and the pEC50 was 7.00 to 8.00.
In the case of `COc1cccc(N2CCC(c3oc4cc([C@@H](CC(=O)O)C5CC5)ccc4c3C(=O)Nc3ccccc3C)CC2)c1` [Compound 239], the pEC50 was 7.00 to 8.00.
With `COc1cccc(N2CCC(c3oc4cc([C@@H](CC(=O)O)C5CC5)ccc4c3C(=O)Nc3ccccc3OC(F)(F)F)CC2)c1` [Compound 240] the pEC50 was 6.30 to 7.00.
For `COc1cccc(N2CCC(c3oc4cc([C@@H](CC(=O)O)C5CC5)ccc4c3C(=O)Nc3ccccc3-c3ccccc3)CC2)c1` [Compound 241], the pEC50 was 6.30 to 7.00.
With `COc1cccc(N2CCC(c3oc4cc([C@@H](CC(=O)O)C5CC5)ccc4c3C(=O)Nc3cccc(C)c3)CC2)c1` [Compound 242] the pEC50 was 6.30 to 7.00.
For `CCc1cccc(NC(=O)c2c(C3CCN(c4cccc(OC)c4)CC3)oc3cc(C(CC(=O)O)C4CC4)ccc23)c1` (stereo not drawn) [Compound 243], the pEC50 was < 6.30.
`COc1cccc(NC(=O)c2c(C3CCN(c4cccc(OC)c4)CC3)oc3cc(C(CC(=O)O)C4CC4)ccc23)c1` (stereo not drawn) [Compound 245] gave a pEC50 of 6.30 to 7.00.
With `COc1cccc(N2CCC(c3oc4cc(C(CC(=O)O)C5CC5)ccc4c3C(=O)Nc3cccc(N(C)C)c3)CC2)c1` (stereo not drawn) [Compound 246] the pEC50 was 6.30 to 7.00.
`COc1cccc(N2CCC(c3oc4cc(C(CC(=O)O)C5CC5)ccc4c3C(=O)Nc3cccc(Br)c3)CC2)c1` (stereo not drawn) [Compound 247] was tested, and the pEC50 was 6.30 to 7.00.
`COc1cccc(N2CCC(c3oc4cc(C(CC(=O)O)C5CC5)ccc4c3C(=O)Nc3cccc(Cl)c3)CC2)c1` (stereo not drawn) [Compound 248] showed a pEC50 of 6.30 to 7.00.
Work on `COc1cccc(N2CCC(c3oc4cc(C(CC(=O)O)C5CC5)ccc4c3C(=O)Nc3cccc(C#N)c3)CC2)c1` (stereo not drawn) [Compound 249] yielded a pEC50 of 6.30 to 7.00.
`COc1cccc(N2CCC(c3oc4cc(C(CC(=O)O)C5CC5)ccc4c3C(=O)Nc3cccc(C)c3F)CC2)c1` (stereo not drawn) [Compound 250] gave a pEC50 of 6.30 to 7.00.

Same assay, conditions: 4-hour treatment, class symbols
In the case of `COc1ccc(F)c(N2CCC(c3oc4cc([C@H](C5CC5)C(C)C(=O)O)ccc4c3-c3cccc(C(C)(C)C)c3)CC2)c1` (stereo partly drawn) [Compound 217], the “Efficacy (%)” value was “†† (150 ≥ Efficacy (%) > 100)”.
In the case of `COc1ccc(F)c(N2CCC(c3oc4cc([C@H](C5CC5)C(C)C(=O)O)ccc4c3-c3ccc(C(C)(C)C)cc3)CC2)c1` (stereo partly drawn) [Compound 218], the “Efficacy (%)” value was “††† (Efficacy (%) > 150)”.
`COc1ccc(F)c(N2CCC(c3oc4cc([C@H](C5CC5)C(F)C(=O)O)ccc4c3-c3cccc(C(C)(C)C)c3)CC2)c1` (stereo partly drawn) [Compound 219] was tested, and the “Efficacy (%)” value was “† (100 ≥ Efficacy (%) > 50)”.
For `COc1ccc(F)c(N2CCC(c3oc4cc([C@H](C5CC5)C(F)C(=O)O)ccc4c3-c3ccc(C(C)(C)C)cc3)CC2)c1` (stereo partly drawn) [Compound 220], the “Efficacy (%)” value was “††††”.
In the case of `COc1ccc(F)c(N2CCC(c3oc4cc(C(C5CC5)C(C)(C)C(=O)O)ccc4c3-c3ccc(C(C)(C)C)cc3)CC2)c1` (stereo not drawn) [Compound 222], the “Efficacy (%)” value was “††† (Efficacy (%) > 150)”.
In the case of `COc1ccc(F)c(N2CCC(c3oc4cc(C(CC(=O)O)C5CC5)c(F)cc4c3-c3ccc(C(C)(C)C)cc3)CC2)c1` (stereo not drawn) [Compound 223], the “Efficacy (%)” value was “† (100 ≥ Efficacy (%) > 50)”.
With `COc1ccc(F)c(N2CCC(c3oc4cc(CCC(=O)O)ccc4c3-c3cccc(C(C)(C)C)c3)CC2)c1` [Compound 231] the “Efficacy (%)” value was “† (100 ≥ Efficacy (%) > 50)”.
With `COc1ccc(F)c(N2CCC(c3oc4cc(C(C)CC(=O)O)ccc4c3-c3cccc(C(C)(C)C)c3)CC2)c1` (stereo not drawn) [Compound 232] the “Efficacy (%)” value was “† (100 ≥ Efficacy (%) > 50)”.
In the case of `CCC(CC(=O)O)c1ccc2c(-c3cccc(C(C)(C)C)c3)c(C3CCN(c4cc(OC)ccc4F)CC3)oc2c1` (stereo not drawn) [Compound 233], the “Efficacy (%)” value was “†† (150 ≥ Efficacy (%) > 100)”.
In the case of `COc1cccc(N2CCC(c3oc4cc([C@@H](CC(=O)O)C5CC5)ccc4c3C(=O)Nc3ccccc3F)CC2)c1` [Compound 234], the “Efficacy (%)” value was “†† (150 ≥ Efficacy (%) > 100)”.
`COc1cccc(N2CCC(c3oc4cc(C(CC(=O)O)C5CC5)ccc4c3C(=O)Nc3ccccc3C#N)CC2)c1` (stereo not drawn) [Compound 236] was tested, and the “Efficacy (%)” value was “††† (Efficacy (%) > 150)”.
In the case of `COc1cccc(N2CCC(c3oc4cc(C(CC(=O)O)C5CC5)ccc4c3C(=O)Nc3ccccc3C(F)(F)F)CC2)c1` (stereo not drawn) [Compound 237], the “Efficacy (%)” value was “†† (150 ≥ Efficacy (%) > 100)”.
`COc1cccc(N2CCC(c3oc4cc([C@@H](CC(=O)O)C5CC5)ccc4c3C(=O)Nc3ccccc3C(F)(F)F)CC2)c1` [Compound 238] was tested, and the “Efficacy (%)” value was “††† (Efficacy (%) > 150)”.
`COc1cccc(N2CCC(c3oc4cc([C@@H](CC(=O)O)C5CC5)ccc4c3C(=O)Nc3ccccc3C)CC2)c1` [Compound 239] was tested, and the “Efficacy (%)” value was “††† (Efficacy (%) > 150)”.
With `COc1cccc(N2CCC(c3oc4cc([C@@H](CC(=O)O)C5CC5)ccc4c3C(=O)Nc3ccccc3OC(F)(F)F)CC2)c1` [Compound 240] the “Efficacy (%)” value was “†† (150 ≥ Efficacy (%) > 100)”.
With `COc1cccc(N2CCC(c3oc4cc([C@@H](CC(=O)O)C5CC5)ccc4c3C(=O)Nc3ccccc3-c3ccccc3)CC2)c1` [Compound 241] the “Efficacy (%)” value was “†† (150 ≥ Efficacy (%) > 100)”.
For `COc1cccc(N2CCC(c3oc4cc([C@@H](CC(=O)O)C5CC5)ccc4c3C(=O)Nc3cccc(C)c3)CC2)c1` [Compound 242], the “Efficacy (%)” value was “†† (150 ≥ Efficacy (%) > 100)”.
In the case of `CCc1cccc(NC(=O)c2c(C3CCN(c4cccc(OC)c4)CC3)oc3cc(C(CC(=O)O)C4CC4)ccc23)c1` (stereo not drawn) [Compound 243], the “Efficacy (%)” value was “†† (150 ≥ Efficacy (%) > 100)”.
For `COc1cccc(NC(=O)c2c(C3CCN(c4cccc(OC)c4)CC3)oc3cc(C(CC(=O)O)C4CC4)ccc23)c1` (stereo not drawn) [Compound 245], the “Efficacy (%)” value was “†† (150 ≥ Efficacy (%) > 100)”.
With `COc1cccc(N2CCC(c3oc4cc(C(CC(=O)O)C5CC5)ccc4c3C(=O)Nc3cccc(N(C)C)c3)CC2)c1` (stereo not drawn) [Compound 246] the “Efficacy (%)” value was “†† (150 ≥ Efficacy (%) > 100)”.
In the case of `COc1cccc(N2CCC(c3oc4cc(C(CC(=O)O)C5CC5)ccc4c3C(=O)Nc3cccc(Br)c3)CC2)c1` (stereo not drawn) [Compound 247], the “Efficacy (%)” value was “††† (Efficacy (%) > 150)”.
`COc1cccc(N2CCC(c3oc4cc(C(CC(=O)O)C5CC5)ccc4c3C(=O)Nc3cccc(Cl)c3)CC2)c1` (stereo not drawn) [Compound 248] was tested, and the “Efficacy (%)” value was “†† (150 ≥ Efficacy (%) > 100)”.
For `COc1cccc(N2CCC(c3oc4cc(C(CC(=O)O)C5CC5)ccc4c3C(=O)Nc3cccc(C#N)c3)CC2)c1` (stereo not drawn) [Compound 249], the “Efficacy (%)” value was “†† (150 ≥ Efficacy (%) > 100)”.
With `COc1cccc(N2CCC(c3oc4cc(C(CC(=O)O)C5CC5)ccc4c3C(=O)Nc3cccc(C)c3F)CC2)c1` (stereo not drawn) [Compound 250] the “Efficacy (%)” value was “†† (150 ≥ Efficacy (%) > 100)”.
